Target: T1, alpha-amylase (Homo sapiens, UniProt P0DUB6)
T1 sequence (P0DUB6 16-511): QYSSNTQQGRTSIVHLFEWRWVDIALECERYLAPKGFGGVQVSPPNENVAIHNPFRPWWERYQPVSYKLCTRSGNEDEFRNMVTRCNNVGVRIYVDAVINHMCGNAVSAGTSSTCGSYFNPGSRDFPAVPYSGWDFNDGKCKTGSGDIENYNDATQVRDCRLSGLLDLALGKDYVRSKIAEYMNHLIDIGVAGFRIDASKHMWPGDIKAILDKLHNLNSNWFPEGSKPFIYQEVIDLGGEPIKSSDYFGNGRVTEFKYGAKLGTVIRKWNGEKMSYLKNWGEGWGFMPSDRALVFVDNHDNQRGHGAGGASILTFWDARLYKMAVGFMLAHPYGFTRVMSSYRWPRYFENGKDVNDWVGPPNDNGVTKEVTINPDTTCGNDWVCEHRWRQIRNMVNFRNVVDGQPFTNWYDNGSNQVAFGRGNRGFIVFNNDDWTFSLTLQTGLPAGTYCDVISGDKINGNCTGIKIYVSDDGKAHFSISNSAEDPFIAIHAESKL
Experiment: In vitro inhibition of alpha-amylase (colorimetric, starch to maltose)
Format: biochemical
Conditions: read-out: Inhibitory Activity Alpha-amylase
Experimental: The methods for determining enzyme activities are conventional colorimetric methods.
The principle is as follows: • starch is incubated with an enzyme (for example human salivary amylase).

SMILES: C[C@H]1O[C@H](O[C@H]2[C@H](O)[C@@H](O)[C@@H](O[C@H]3[C@H](O)[C@@H](O)C(O)O[C@@H]3CO)O[C@@H]2CO)[C@H](O)[C@@H](O)[C@@H]1N[C@H]1C=C(CO)[C@@H](O)[C@H](O)[C@H]1O (stereo partly shown) [Glucor ™, Acarbose]
- inhibition at 1000 µg/mL: 93%

— patent US20140199410A1, “EDIBLE BROWN ALGAE EXTRACT WITH A LOW IODINE CONTENT” (ALGUES ET MER, priority 2011, published 2014)
